In patent publication US20170224662A1 (priority 2016, published 2017):
Values after ≈ are worked out from the molar mass of the structure shown. Like-named read-outs stand apart in the source and are kept apart here. Marks after values point to notes of the source that are not given here.

What was measured:
Format in all cases: physicochemical
[1] = Binary excipient screening: stability of CPMM 1 mg/mL in IV-compatible excipient solutions in 10 mM pH 3 phosphate buffer; settings: for CPMM % Purity: t = 0
Procedure: CPMM was evaluated for compatibility with excipients that are suitable for IV administration. A buffer solution (phosphate at pH 3) was selected as the diluent for excipient screening studies. […] CPMM was solubilized in each excipient solution at 1 mg/mL.
While CPMM completely dissolved in the control sample within several minutes, many of the excipient solutions required overnight storage at 5° C. to solubilize the drug.
Each excipient sample solution was placed on a two-week stability study at 25° C./60% relative humidity and 40° C./75% relative humidity, and analyzed for CPMM purity at t=0, 1, and 2 weeks by comparing individual samples to their respective excipient blank solution.

[2] = physchem; settings: aqueous buffer, thermodynamic from solid, read-out: Actual [CPMM] Concentration (maximum solubility)
Procedure: CPMM was evaluated for maximum solubility in aqueous pH 1-9 buffer solutions. CPMM was weighted into 1.0 mL of each solution, vortex mixed to solubilize, and placed on a shaker table until saturated. Additional CPMM was added and replaced on the shaker table until a saturated solution was obtained. The one exception was the pH 1 sample solution, which never reached saturation level due to the CPMM's high solubility at that pH range. Saturated solutions were centrifuged and the supernatants were analyzed by HPLC.

[3] = physchem; settings: thermodynamic from solid
Procedure: A study was conducted to evaluate whether buffer concentration affects the maximum solubility of CPMM. […] The solutions were prepared and CPMM was added until saturation was achieved. The pH was controlled by continually titrating the solutions to pH 6 using NaOH. Saturation was determined to have been achieved after the pH had stabilized and undissolved remained in the vial after overnight shaking. Solubility was evaluated by taking two separate samplings over the course of two days to verify that saturation had been achieved. Solubility was measured when the formulations were at room temperature, as well as tested when the formulations were under sub-ambient conditions (2-8° C.) to evaluate whether the solubility would be affected at lower temperatures for long term storage at (2-8° C.).

Compound: COC(=O)C1(OC(=O)c2cncn2[C@H](C)c2ccccc2)CC1 [CPMM, 1-(methoxycarbonyl)cyclopropyl-1-[(1R)-1-phenylethyl]-1H-imidazole-5-carboxylate]
- Change in CPMM % Purity ([1]; Polysorbate 20 1% in pH 3 buffer, 1 week 25° C./60% RH): −1.4%
- Change in CPMM % Purity ([1]; Polysorbate 20 1% in pH 3 buffer, 1 week 40° C./75% RH): −4.6%
- Change in CPMM % Purity ([1]; Polysorbate 20 1% in pH 3 buffer, 2 weeks 25° C./60% RH): −2.1%
- Change in CPMM % Purity ([1]; Polysorbate 20 1% in pH 3 buffer, 2 weeks 40° C./75% RH): −8.1%
- CPMM % Purity ([1]; Polysorbate 20 1% in pH 3 buffer): 99.4%
- Change in CPMM % Purity ([1]; Polysorbate 80 1% in pH 3 buffer, 1 week 25° C./60% RH, may be due to excipient impurities): −4.2%^†
- Change in CPMM % Purity ([1]; Polysorbate 80 1% in pH 3 buffer, 1 week 40° C./75% RH, may be due to excipient impurities): −8.3%^†
- Change in CPMM % Purity ([1]; Polysorbate 80 1% in pH 3 buffer, 2 weeks 25° C./60% RH, may be due to excipient impurities): −5.2%^†
- Change in CPMM % Purity ([1]; Polysorbate 80 1% in pH 3 buffer, 2 weeks 40° C./75% RH, may be due to excipient impurities): −15.0%^†
- CPMM % Purity ([1]; Polysorbate 80 1% in pH 3 buffer): 99.4%
- Change in CPMM % Purity ([1]; Propylene Glycol 10% in pH 3 buffer, 1 week 25° C./60% RH): −1.2%
- Change in CPMM % Purity ([1]; Propylene Glycol 10% in pH 3 buffer, 1 week 40° C./75% RH): −4.0%
- Change in CPMM % Purity ([1]; Propylene Glycol 10% in pH 3 buffer, 2 weeks 25° C./60% RH): −1.9%
- Change in CPMM % Purity ([1]; Propylene Glycol 10% in pH 3 buffer, 2 weeks 40° C./75% RH): −6.9%
- CPMM % Purity ([1]; Propylene Glycol 10% in pH 3 buffer): 99.4%
- Change in CPMM % Purity ([1]; SBECD 10% in pH 3 buffer, 1 week 25° C./60% RH): −0.4%
- Change in CPMM % Purity ([1]; SBECD 10% in pH 3 buffer, 1 week 40° C./75% RH): −1.3%
- Change in CPMM % Purity ([1]; SBECD 10% in pH 3 buffer, 2 weeks 25° C./60% RH): −0.4%
- Change in CPMM % Purity ([1]; SBECD 10% in pH 3 buffer, 2 weeks 40° C./75% RH): −2.1%
- CPMM % Purity ([1]; SBECD 10% in pH 3 buffer): 99.4%
- Change in CPMM % Purity ([1]; Sodium Bisulfite 0.5% in pH 3 buffer, 1 week 25° C./60% RH): −1.9%
- Change in CPMM % Purity ([1]; Sodium Bisulfite 0.5% in pH 3 buffer, 1 week 40° C./75% RH): −7.2%
- Change in CPMM % Purity ([1]; Sodium Bisulfite 0.5% in pH 3 buffer, 2 weeks 25° C./60% RH): −3.2%
- Change in CPMM % Purity ([1]; Sodium Bisulfite 0.5% in pH 3 buffer, 2 weeks 40° C./75% RH): −12.2%
- CPMM % Purity ([1]; Sodium Bisulfite 0.5% in pH 3 buffer): 99.4%
- Change in CPMM % Purity ([1]; Solutol HS15 1% in pH 3 buffer, 1 week 25° C./60% RH): −1.3%
- Change in CPMM % Purity ([1]; Solutol HS15 1% in pH 3 buffer, 1 week 40° C./75% RH): −4.2%
- Change in CPMM % Purity ([1]; Solutol HS15 1% in pH 3 buffer, 2 weeks 25° C./60% RH): −2.1%
- Change in CPMM % Purity ([1]; Solutol HS15 1% in pH 3 buffer, 2 weeks 40° C./75% RH): −7.3%
- CPMM % Purity ([1]; Solutol HS15 1% in pH 3 buffer): 99.4%
- Change in CPMM % Purity ([1]; Sorbitol 5% in pH 3 buffer, 1 week 25° C./60% RH): −1.3%
- Change in CPMM % Purity ([1]; Sorbitol 5% in pH 3 buffer, 1 week 40° C./75% RH): −4.5%
- Change in CPMM % Purity ([1]; Sorbitol 5% in pH 3 buffer, 2 weeks 25° C./60% RH): −2.3%
- Change in CPMM % Purity ([1]; Sorbitol 5% in pH 3 buffer, 2 weeks 40° C./75% RH): −8.3%
- CPMM % Purity ([1]; Sorbitol 5% in pH 3 buffer): 99.5%
- Change in CPMM % Purity ([1]; Sucrose 5% in pH 3 buffer, 1 week 25° C./60% RH): −1.5%
- Change in CPMM % Purity ([1]; Sucrose 5% in pH 3 buffer, 1 week 40° C./75% RH): −5.2%
- Change in CPMM % Purity ([1]; Sucrose 5% in pH 3 buffer, 2 weeks 25° C./60% RH): −2.5%
- Change in CPMM % Purity ([1]; Sucrose 5% in pH 3 buffer, 2 weeks 40° C./75% RH): −9.0%
- CPMM % Purity ([1]; Sucrose 5% in pH 3 buffer): 99.4%
- Change in CPMM % Purity ([1]; Trehalose 5% in pH 3 buffer, 1 week 25° C./60% RH): −1.3%
- Change in CPMM % Purity ([1]; Trehalose 5% in pH 3 buffer, 1 week 40° C./75% RH): −4.6%
- Change in CPMM % Purity ([1]; Trehalose 5% in pH 3 buffer, 2 weeks 25° C./60% RH): −2.3%
- Change in CPMM % Purity ([1]; Trehalose 5% in pH 3 buffer, 2 weeks 40° C./75% RH): −8.4%
- CPMM % Purity ([1]; Trehalose 5% in pH 3 buffer): 99.4%
- solubility ([2]; 50 mM buffer pH 1 (phosphoric acid), actual pH 0.63, never saturated, not a true maximum solubility): 404000 µg/mL (≈ 1280 mM)
- solubility ([2]; 50 mM buffer pH 2 (phosphoric acid), actual pH 1.43): 49400 µg/mL (≈ 157 mM)
- solubility ([2]; 50 mM buffer pH 3 (phosphoric acid), actual pH 2.62): 3150 µg/mL (≈ 10 mM)
- solubility ([2]; 50 mM buffer pH 4 (citric acid), actual pH 3.5): 677 µg/mL (≈ 2.15 mM)
- solubility ([2]; 50 mM buffer pH 5 (citric acid), actual pH 4.57): 325 µg/mL (≈ 1.03 mM)
- solubility ([2]; 50 mM buffer pH 6 (citric acid), actual pH 5.55): 284 µg/mL (≈ 0.903 mM)
- solubility ([2]; 50 mM buffer pH 7 (phosphoric acid), actual pH 6.68): 268 µg/mL (≈ 0.853 mM)
- solubility ([2]; 50 mM buffer pH 8 (phosphoric acid), actual pH 7.48): 260 µg/mL (≈ 0.827 mM)
- solubility ([2]; 50 mM buffer pH 9 (phosphoric acid), actual pH 8.81): 279 µg/mL (≈ 0.888 mM)
- solubility ([3]; 2 °C, pH 6.02, aqueous with cosolvent or surfactant or cyclodextrin, 10% SBECD in 25 mM Citrate, 2-8° C./ambient RH, pH 6.02, read-out: CPMM Amount (maximum solubility)): 5590 µg/mL (≈ 17.8 mM)
- solubility ([3]; 2 °C, pH 6.05, aqueous with cosolvent or surfactant or cyclodextrin, 10% SBECD in 10 mM Citrate, 2-8° C./ambient RH, pH 6.05, read-out: CPMM Amount (maximum solubility)): 5480 µg/mL (≈ 17.4 mM)
- solubility ([3]; pH 5.96, aqueous buffer, 10 mM Citrate, RT/Ambient RH, pH 5.96, read-out: CPMM Amount (maximum solubility)): 300 µg/mL (≈ 0.954 mM)
- solubility ([3]; pH 5.98, aqueous buffer, 50 mM Citrate, RT/Ambient RH, pH 5.98, read-out: CPMM Amount (maximum solubility)): 230 µg/mL (≈ 0.732 mM)
- solubility ([3]; pH 5.98, aqueous with cosolvent or surfactant or cyclodextrin, 10% SBECD in 10 mM Citrate, RT/Ambient RH, pH 5.98, read-out: CPMM Amount (maximum solubility)): 5470 µg/mL (≈ 17.4 mM)
- solubility ([3]; pH 5.98, aqueous with cosolvent or surfactant or cyclodextrin, 10% SBECD in 25 mM Citrate, RT/Ambient RH, pH 5.98, read-out: CPMM Amount (maximum solubility)): 5490 µg/mL (≈ 17.5 mM)
- solubility ([3]; pH 5.99, aqueous with cosolvent or surfactant or cyclodextrin, 10% SBECD in 50 mM Citrate, RT/Ambient RH, pH 5.99, read-out: CPMM Amount (maximum solubility)): 5680 µg/mL (≈ 18.1 mM)
- solubility ([3]; pH 6, aqueous buffer, 25 mM Citrate, RT/Ambient RH, pH 6.00, read-out: CPMM Amount (maximum solubility)): 280 µg/mL (≈ 0.891 mM)
- solubility ([3]; pH 6, aqueous buffer, citrate solutions containing no SBECD, read-out: solubility): ~300 µg/mL (≈ 0.954 mM)
- solubility ([3]; pH 6, aqueous with cosolvent or surfactant or cyclodextrin, 10% SBECD solutions at all citrate concentrations, regardless of the condition, read-out: solubility): ~5500 µg/mL (≈ 17.5 mM)
